What was measured:
Plasmodium yoelii = type: in vivo; conditions: P. yoelii, CF1 mice, oral gavage in PEG-400, 5 mg/kg × 4 days
[1] = ref 34 (2), ref 35 (6); cited from earlier work
[2] = cited from earlier work

For `C=CCCCCCCCCc1ccc(C2=N/C(=C\NCCC=C)C(OC)=C2)[nH]1.Cl` [Compound 39, N-((5-(dec-9-en-1-yl)-4’-methoxy-1H,5’H-[2,2’-bipyrrol]-5’-ylidene)methyl)but-3-en-1-amine], the “in vivo %parasitemia reduction on day 5 at 5 mg/kg/4d” value (“in vivo %parasitemia reduction” below) (Plasmodium yoelii) was “ineffective”.
With `COC1=CC2=N/C1=C\NCC/C=C/CCCCCCCCc1ccc2[nH]1.Cl` [(E/Z)-7, geometric isomers of Tambjamine MYP1] the “in vivo %parasitemia reduction” value (Plasmodium yoelii) was “ineffective”.
With `CCCCc1cc(/C=C2\N=C(c3ccc(Cc4ccc(O)cc4)[nH]3)C=C2OC)[nH]c1C.Cl` [Compound 3, 4-((5’-((4-Butyl-5-methyl-1H-pyrrol-2-yl)methylene)-4’-methoxy-1H,5’H-[2,2’-bipyrrol]-5-yl)methyl)phenol] the “in vivo %parasitemia reduction” value (Plasmodium yoelii) was “did not show efficacy”.
For `COC1=CC(c2ccc[nH]2)=N/C1=C\c1cc(CCCCC(C)C)c(C)[nH]1.Cl` [Compound 6, Isoheptylprodigiosin], the antimicrobial activity [1] is listed as “moderate”.
In the case of `CCCCCc1cc(/C=C2\N=C(c3ccc(Cc4ccc(O)cc4)[nH]3)C=C2OC)[nH]c1C.Cl` [Compound 2, 4-((4’-Methoxy-5’-((5-methyl-4-pentyl-1H-pyrrol-2-yl)methylene)-1H,5’H-[2,2’-bipyrrol]-5-yl)methyl)phenol], the “in vivo %parasitemia reduction” value (Plasmodium yoelii) is given as “did not show efficacy”, the antimicrobial activity [1] is given as “good” and the cytotoxicity activity [2] is given as “good”.
